Values after ≈ are worked out from the molar mass of the structure shown.
Legend:
[1] = test system: HBV; settings: literature report; cited from earlier work
[2] = Cytotoxic Concentration in HepG2 2. 2. 15 cell line; format: cell-based; settings: human, hepg2 2.2.15 cells
Experimental: (§1) Anti-HBV effect of 1-(5-hydroxymethyl-1,4-dioxan-2-yl)thymine, one of the desired product of the present invention prepared in Example 38, was tested in HepG2 2. 2. 15 cell line. The resultant Effective Concentration (Ec50, EC90), Cytotoxic Concentration (CC50) and Selectivity Index (SI) are shown in the Table below.

[3] = test system: HBV; test: Anti-HBV effect in HepG2 2. 2. 15 cell line; format: cell-based, Hepatitis B Virus
Experimental: as §1

Row | SMILES | anti-HBV activity (in words) [1] | other results
1 | Nc1nc(=O)n(C2CCC(CO)O2)cc1F [2'3'-dideoxy-β-L-5-fluoro-cytidine] | showing anti-HBV activity | 
2 | Nc1nc(=O)n([C@H]2CS[C@@H](CO)O2)cc1F [5-fluoro-2',3'-dideoxy-3'-thiacytidine] | showing anti-HBV activity | 
3 | Nc1ccn(C2CCC(CO)O2)c(=O)n1 [2',3'-dideoxy-β-L-cytidine] | showing anti-HBV activity | 
4 | Cc1cn(C2COC(CO)CO2)c(=O)[nH]c1=O (centres unmarked) [Compound of Ex.38, 1-(5-hydroxymethyl-1,4-dioxan-2-yl)thymine] |  | CC50 [2]: 846 µg/mL (≈ 3490 µM); SI (CC50/EC50) (Selectivity Index) ([3]; CC50/EC50): 188; EC50 ([3]; Hepatitis B virus, HepG2 2.2.15, read-out: EC50 (Effective Concentration)): 4.5 µg/mL (≈ 18.6 µM); EC90 ([3]; Hepatitis B virus, HepG2 2.2.15, read-out: EC90 (Effective Concentration)): 15 µg/mL (≈ 61.9 µM)
5 | Nc1ccn([C@H]2CS[C@@H](CO)O2)c(=O)n1 [2',3'-dideoxy-3'-thiacytidine] | showing anti-HBV activity | 

Reference: patent US6034087A, “Nucleoside derivatives and process for preparing thereof” (priority 1994, dated 2000)
